This note sets out measurements from patent US12630523B2, “Isoquinoline derivatives for use as antiviral and antitumour agents” (priority 2021, dated 2026).

The EC50 is the concentration at which the effect is half-maximal. Broadly, the inhibition is the relative decrease from the control value, in per cent. Low readings indicate a weak effect, high ones a strong effect.

Each structure is given as a SMILES string.

T1 sequence (P03129 whole entry): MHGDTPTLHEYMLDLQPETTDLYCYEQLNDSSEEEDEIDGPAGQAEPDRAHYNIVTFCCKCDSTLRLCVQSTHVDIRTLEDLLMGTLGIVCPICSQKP

The first experiment has as its target T1, HPV16 E7 protein (Human papillomavirus type 16, UniProt P03129).
T1 construct: endogenous in cells; host or cells: CaSki cells (HPV16-positive cervical carcinoma)
Test: not given
The format is cell-based. Conditions: CaSki cells; adjusted degradation, CHX steady state set to 100% degradation. How it is done:
For intracellular antibody labeling, 0.5×10^6 cells are washed once with 1 ml ice-cold PBS. Cells are centrifuged at 350×g for 5 minutes at 4° C. and then fixed in 1% paraformaldehyde (1 ml/10^6 cells) for 20 minutes at 4° C. Cells are washed with 1 ml ice-cold PBS and centrifuged at 350×g for 5 minutes at 4° C. To permeabilize cells, 100% ice-cold methanol (1 ml/10^6 cells) is added to the cells and incubated for 20 minutes at 4° C. followed by centrifugation at 350×g for 5 minutes at 4° C. Cells are washed with 1 ml ice-cold PBS, centrifuged at 350×g for 5 minutes at 4° C. and resuspended in 0.1% saponin+2% FBS in PBS (ice-cold). Cells are left for 20-30 minutes at room temperature to reduce the background signal and then centrifuged at 350×g for 5 minutes at 4° C. The primary antibody (mAb_HPV16E7-1 (VS13004); concentration 1 μg/μl) is diluted in 0.1% saponin+2% FBS (dilution 0.25 μg/50 μl of incubation buffer per 1×10^6 cells (5 ng/μl)). Cells are incubated with primary antibody for 30 minutes at room temperature, washed with 0.1% saponin+2% FBS and centrifuged at 350×g for 5 minutes at 4° C. The secondary antibody (FITC conjugated goat anti-mouse IgG1-IgM, BD, cat. #555988) is diluted in 0.1% saponin+2% FBS (dilution 1:50). Cells are incubated with secondary antibody for 30 minutes at room temperature, washed once with 0.1% saponin+2% FBS, once with PBS and centrifuged at 350×g for 5 minutes at 4° C.
Cells are resuspended in 700 μl PBS prior to CF analysis with a Beckman Coulter FC 500 MPL, (excitation laser 488 nm). Data analysis is done using the Beckman Coulter software packages MXP for acquisition and CXP for data analysis which includes MFI calculation. Detection of HPV-E7 protein expression is based on morphology back-gating of FL1 histogram (logarithmic scale) with gating for dot plot FS (Forward Scatter) log/SS (Sideward Scatter) log and gating for histograms SS log.
In order to define the level of E7 protein expression and to study the extent of E7 protein steady state level reduction in E7 expressing cells in the presence of various compounds, FC analysis is implemented using the intracellular antibody labeling procedure for monoclonal antibodies to HPV E7. E7 signal intensities are analyzed from the obtained FL1 histograms at logarithmic scale. The FL1 single histogram graph represents the variation in the mean fluorescence intensity (MFI) channel for cells treated with selected compounds compared to cells not incubated with primary antibodies but incubated with secondary, which allows to test for auto-fluorescence, and non-compound treated cells as controls. Non-primary antibody-stained cells are used to set the acquisition parameters to zero. Decrease of the mean fluorescence intensity channel corresponds to a decrease in the expression of HPV16 E7 protein. Degradation of E7 in cells is calculated as percent (%) reduction in MFI(x-Me) using the following formulas: % Drel=(T−C)/T*100; i) relative degradation: % Dad=(T−C)/(T−CHX)*100; ii) adjusted degradation: • Drel=relative degradation, • Dad=adjusted degradation assuming CHX % Drel=100; • T=MFI of non-treated cells; • C=MFI of compound treated cells; • CH=MFI of cycloheximide (CHX) treated cells;
For comparison within one experiment i) the % relative degradation (Drel) is sufficient, whereas for comparison between two or more experiments ii) the adjusted degradation (Dad) is used and CHX steady state is set to a 100% degradation parameter.
1×10^6 freshly seeded CaSki cells (ATCC CRL-7915), are grown in 10 cm diameter cell culture dishes in RPMI1640, 10% FCS medium at 37° C. 5% CO2 overnight and then incubated in the presence of 10 μM Cycloheximide (CHX) 10 μM OC246 or with vehicle alone for four hours at 37° C. 5% CO2. Following this E7 protein is assessed by cytofluorimetric analysis using intracellular HPV16 E7 antibody labeling. […]
Regarding `Cc1ccc(CN2C(=O)c3ccccc3[C@@H](C(=O)Nc3cccc(N4CCN(C)CC4)c3)[C@@H]2c2ccc(C(F)(F)F)nc2)cc1` (relative stereo) [OC968], the “% Dad” value came to 37%.

As to `Cc1ccc(CN2C(=O)c3ccccc3[C@@H](C(=O)Nc3ccc(N4CCN(C)CC4)cc3)[C@@H]2c2ccc(C(F)(F)F)cc2)cc1` (relative stereo) [OC972], the “% Dad” value is 32%.

The test system of a further experiment is CaSki cells. Description: Cell cycle analysis using Propidium-Iodide staining (flow cytometry). The format is cell-based, human. The conditions noted are these: 48 hour incubation, 5 μM, no treatment 15.0. As for the experimental part: Propidium-Iodide (PI) DNA staining is performed to facilitate cell cycle analysis. For PI-DNA staining, fixed cells and eventually antibody-stained cells are resuspended in 450 μl of PBS (per 10^6 cells) and incubated with 100 μg/ml RNase (stock 1 mg/ml, in PBS) for 10 minutes at 37° C. Cells are then incubated with 5 μg/106 cells of PI (stock 1 mg/ml in PBS) for 10 minutes at room temperature. Samples are stored at 4° C. until CF analysis.
CaSki cells were incubated with various compounds and cell cycle distribution of the cells was assessed using Propidium-Iodide staining.
In order to analyze the cytostatic versus the cytotoxic effect of OC compounds, cell cycle profiles were analyzed in vitro after 48 hour incubations using Flow Cytometry as a read out. For this a cell cycle analysis from selected OC E7 degrader compounds was conducted in CaSki cells. Using 6 well plates, 1.5×10^5 cells were seeded for each well and grown over night at 37° C. 5% CO2. For analysis of the cell cycle behavior, cells were analyzed in the presence of propidium Iodide (PI^−) by flow cytometry (FC). Briefly, cells were detached by trypsin digestion, all supernatants were included in the analysis, and fixed with 70% ice cold ethanol and stored at 4° C. until FC analysis using PI^− staining (1 mg/ml). At least 7000 events were acquired for each sample.
For the compound `Cc1ccc(CN2C(=O)c3ccccc3[C@@H](C(=O)Nc3cccc(N4CCN(C)CC4)c3)[C@@H]2c2ccc(C(F)(F)F)nc2)cc1` (relative stereo) [OC968], the “A*/5 μM (apoptosis as measured from total SUB G1 content)” value worked out at 11.9%.

For the compound `Cc1ccc(CN2C(=O)c3ccccc3[C@@H](C(=O)Nc3ccc(N4CCN(C)CC4)cc3)[C@@H]2c2ccc(C(F)(F)F)cc2)cc1` (relative stereo) [OC972], the “A*/5 μM (apoptosis as measured from total SUB G1 content)” value amounted to 12.8%.

Still in this experiment, the particulars now being: 48 hour incubation, 10 μM, no treatment 15.0.
On to `Cc1ccc(CN2C(=O)c3ccccc3[C@@H](C(=O)Nc3cccc(N4CCN(C)CC4)c3)[C@@H]2c2ccc(C(F)(F)F)nc2)cc1` (relative stereo) [OC968], for which the “A*/10 μM (apoptosis as measured from total SUB G1 content)” value amounted to 11.6%.

Consider `Cc1ccc(CN2C(=O)c3ccccc3[C@@H](C(=O)Nc3ccc(N4CCN(C)CC4)cc3)[C@@H]2c2ccc(C(F)(F)F)cc2)cc1` (relative stereo) [OC972], for which the “A*/10 μM (apoptosis as measured from total SUB G1 content)” value is reported as 13.5%.

The same experiment, now with this note: cell cycle distribution, 48 hour incubation, 5 μM, no treatment 15.6.
In the case of `Cc1ccc(CN2C(=O)c3ccccc3[C@@H](C(=O)Nc3cccc(N4CCN(C)CC4)c3)[C@@H]2c2ccc(C(F)(F)F)nc2)cc1` (relative stereo) [OC968], the “G2/5 μM” value stood at 18.0%.

Turning to `Cc1ccc(CN2C(=O)c3ccccc3[C@@H](C(=O)Nc3ccc(N4CCN(C)CC4)cc3)[C@@H]2c2ccc(C(F)(F)F)cc2)cc1` (relative stereo) [OC972], the “G2/5 μM” value was found to be 16.9%.

Still in this experiment, the particulars now being: cell cycle distribution, 48 hour incubation, 5 μM, no treatment 53.3.
With `Cc1ccc(CN2C(=O)c3ccccc3[C@@H](C(=O)Nc3cccc(N4CCN(C)CC4)c3)[C@@H]2c2ccc(C(F)(F)F)nc2)cc1` (relative stereo) [OC968], the “G1/5 μM” value amounted to 52.7%.

For the compound `Cc1ccc(CN2C(=O)c3ccccc3[C@@H](C(=O)Nc3ccc(N4CCN(C)CC4)cc3)[C@@H]2c2ccc(C(F)(F)F)cc2)cc1` (relative stereo) [OC972], the “G1/5 μM” value was found to be 53.2%.

Staying with this experiment, now noted: cell cycle distribution, 48 hour incubation, 10 μM, no treatment 15.6.
For the compound `Cc1ccc(CN2C(=O)c3ccccc3[C@@H](C(=O)Nc3cccc(N4CCN(C)CC4)c3)[C@@H]2c2ccc(C(F)(F)F)nc2)cc1` (relative stereo) [OC968], the “G2/10 μM” value is 19.7%.

In the case of `Cc1ccc(CN2C(=O)c3ccccc3[C@@H](C(=O)Nc3ccc(N4CCN(C)CC4)cc3)[C@@H]2c2ccc(C(F)(F)F)cc2)cc1` (relative stereo) [OC972], the “G2/10 μM” value was determined as 15.9%.

The experiment is the same for the next values; noted with them: cell cycle distribution, 48 hour incubation, 10 μM, no treatment 53.3.
Take `Cc1ccc(CN2C(=O)c3ccccc3[C@@H](C(=O)Nc3cccc(N4CCN(C)CC4)c3)[C@@H]2c2ccc(C(F)(F)F)nc2)cc1` (relative stereo) [OC968]: the “G1/10 μM” value was 48.0%.

Turning to `Cc1ccc(CN2C(=O)c3ccccc3[C@@H](C(=O)Nc3ccc(N4CCN(C)CC4)cc3)[C@@H]2c2ccc(C(F)(F)F)cc2)cc1` (relative stereo) [OC972], the “G1/10 μM” value was determined as 48.4%.

For the next experiment, the system named is CaSki (ATCC CRM-CRL-1550). Put plainly: Monolayer assay using Sulphorhodamine B (SRB) staining, CaSki. The format is cell-based. Conditions: Homo sapiens, Ca-Ski, read-out: EC50 mean [nM]. As for the experimental part: Various cell culture cells grown as monolayers are harvested from exponential growing cultures after treatment with various OC compounds at different concentrations. For this depending on the cell line, 10.000 to 30.000 cells were plated in 96-well flat-bottom microtiter plates. After a 24 h recovery period to allow cells to resume exponential growth, supernatants are discarded and 100 μl of culture medium (eight control wells/plate) or culture medium with the test compound are added by a liquid handling robotic system (Microlab® Starlet, Hamilton) and treatment continued for 72 hrs. Compounds are applied at 9 concentrations and eight wells/concentration). At least three independent experiments are performed. For SRB staining, cells are fixed with SRB01 (Tab. 5) for 1 h at 4° C. (final concentration of TCA=10%) washed with a plate washer (Hydroflex, Tecan©) for five times with H2O; and stained with 100 μl of SRB02 at room temperature for 10 min following 4 washes in SRB03 and finally 100 μl of developer solution SRB04 for 5 minutes with shaking. Optical density is assessed using a plate-reader (Sunrise, Tecan©) at 540 nm.
Concentrations required for half maximal response of the compound for cell growth inhibition (EC50) is calculated by non-linear regression (log[conc. of inhibitor] versus response (% T/C)) using the analysis software GraphPad Prism®, Prism 5 for windows, version 5.01 (GraphPad Software Inc., CA).
As for `Cc1ccc(CN2C(=O)c3ccccc3[C@@H](C(=O)Nc3cccc(N4CCN(C)CC4)c3)[C@@H]2c2ccc(C(F)(F)F)nc2)cc1` (relative stereo) [OC968], the EC50 stood at 10600 nM.

For the compound `Cc1ccc(CN2C(=O)c3ccccc3[C@@H](C(=O)Nc3ccc(N4CCN(C)CC4)cc3)[C@@H]2c2ccc(C(F)(F)F)cc2)cc1` (relative stereo) [OC972], the EC50 is 67700 nM.

Another experiment deals with SARS-CoV-2 isolate BetaCov/Belgium/GHB-03021/2020. Description: microbe, parasite or virus in culture. The format is cell-based. The conditions noted are these: Severe acute respiratory syndrome coronavirus 2; 1.25 μM (non-toxic compound concentration), n4.
The compound `Cc1ccc(CN2C(=O)c3ccccc3[C@@H](C(=O)Nc3cccc(N4CCN(C)CC4)c3)[C@@H]2c2ccc(C(F)(F)F)nc2)cc1` (relative stereo) [OC968] came in with an inhibition at 1.25 µM of 2.09%.

`Cc1ccc(CN2C(=O)c3ccccc3[C@@H](C(=O)Nc3ccc(N4CCN(C)CC4)cc3)[C@@H]2c2ccc(C(F)(F)F)cc2)cc1` (relative stereo) [OC972] displayed an inhibition at 1.25 µM of 5.37%.
